For ten compounds, log k, MIC and IC50 results are on record in paper PMC6268061, “Investigation of the Biological Properties of (Hetero)Aromatic Thiosemicarbazones” (Molecules, 2012).

Converted amounts (≈) assume the structure as drawn. “And” between values parts separate entries of the source, which are not always exact repeats. Equal values may be shown once. Read-outs that look alike come from different tables or passages of the source.

A short description of data set [1]: Lipophilicity determination using RP-HPLC (capacity factor, log k). In kind it is physicochemical. The conditions noted are these: C18, MeOH 55%/H2O 45%. From the text:
Reversed phase high performance liquid chromatography (RP-HPLC) methods have become popular and are widely used for lipophilicity measurements. The general procedure is the measurement of the directly accessible retention time under isocratic conditions using varying amounts of methanol as an organic modifier in the mobile phase using RP columns and calculating the logarithm of the capacity factors (log k). Log k is the logarithm of the capacity factors in chromatographic approaches that is related to the partitioning of a compound between a mobile and a (pseudo-)stationary phase. Log k is used as the lipophilicity index converted to log P scale.
A Waters Alliance 2695 XE HPLC separation module and a Waters Photodiode Array Detector 2996 (Waters Corp., Milford, MA, USA) were used. A Symmetry® C18 5 μm, 4.6 × 250 mm, Part No. WAT054275 (Waters Corp.) chromatographic column was used. The HPLC separation process was monitored using Empower™ 2 Chromatography Data Software, Waters 2009 (Waters Corp.). A mixture of MeOH p.a. (55%) and H2O-HPLC-Mili-Q Grade (45%) was used as a mobile phase. The total flow of the column was 0.9 mL/min, injection volume 30 μL, column temperature 30 °C and sample temperature 10 °C. A detection wavelength of 210 nm was chosen. A KI methanolic solution was used for the determination of dead time (tD). Retention times (tR) were measured in minutes. The capacity factors k were calculated using the Empower™ 2 Chromatography Data Software according to the formula k = (tR − tD)/tD, where tR is the retention time of the solute, whereas tD denotes the dead time obtained using an unretained analyte. Log k, calculated from the capacity factor k, is used as the lipophilicity index converted to log P scale.

For data set [2], the system named is Candida albicans ATCC 44859. The data set is described as follows: In vitro antifungal susceptibility, broth microdilution. The class given is cell-based. The conditions noted are these: read-out: MIC (IC80) CA. (In broth dilution the organism is exposed to a series of concentrations in liquid medium.)
For the next data set, the system named is Candida tropicalis 156. The description is as above. In kind it is cell-based. The conditions noted are these: read-out: MIC (IC80) CT.
Another data set concerns Candida krusei ATCC 6258. The data set is described as above. In kind it is cell-based. Particulars: Pichia kudriavzevii, read-out: MIC (IC80) CK.
A further data set deals with Candida glabrata 20/I. The description is as above. In kind it is cell-based. The conditions noted are these: Nakaseomyces glabratus, read-out: MIC (IC80) CG.
The test system of data set [3] is Trichosporon beigelii 1188. Described as above. In kind it is cell-based. From the text:
The broth microdilution test was used for the assessment of the in vitro antifungal activity of the synthesized compounds against Candida albicans ATCC 44859 (CA), Candida tropicalis 156 (CT), Candida krusei ATCC 6258 (CK), Candida glabrata 20/I (CG), Trichosporon beigelii 1188 (TB), Aspergillus fumigatus 231 (AF), Absidia corymbifera 272 (AC), and Trichophyton mentagrophytes 445 (TM). Fluconazole (FLU) was used as the standard since it is a clinically used antimycotic drug. The procedure was performed using a twofold dilution of the compounds in RPMI 1640 (Sevapharma a.s., Prague, Czech Republic) buffered to pH 7.0 with […] of 3-morpholino-propane-1-sulfonic acid (MOPS, Sigma, Prague, Czech Republic). The final concentrations of the compounds ranged from 500 to 0.975 μmol/L. Drug-free controls were included. The determination of minimum inhibitory concentration (MIC) was performed according to the Clinical and Laboratory Standards Institute (CLSI, formerly NCCLS) reference protocol M27-A2 for yeasts (IC80 value) and M38-A for moulds (IC50 value). IC80 and IC50 were defined as an 80% resp. 50% or greater reduction in growth in comparison with the control. The values of MICs were determined after 24 and 48 h of static incubation at 35 °C. The final MICs for T. mentagrophytes, were determined after 72 and 120 h of incubation.

Data set [4] has as its system Aspergillus fumigatus 231. Described as above. The class given is cell-based. Particulars: read-out: MIC (IC50) AF.
Another data set deals with Absidia corymbifera 272. Described as above. In kind it is cell-based. The conditions noted are these: read-out: MIC (IC50) AC.
Data set [5] relates to Trichophyton mentagrophytes 445. Described as above. Particulars: read-out: MIC (IC50) TM. The class given is cell-based.
The subject of data set [6] is HCT-116 human colon cancer cells (p53 wild type). The data set is described as follows: In vitro antiproliferative activity, MTS assay. The conditions noted are these: read-out: HCT-116 IC50. The class given is cell-based. On the procedure: The antiproliferative activity of all of the compounds was examined against the human colon cancer (HCT-116) cell line using an MTS assay. The HCT-116 p53 wild type cell line was chosen on the basis of our former experience and some results on the activity of quinoline-based thiosemicarbazones that was published recently. Namely, compounds 4a–l have been tested previously for their wide-ranging anticancer activity. The antiproliferative activity of the compounds evaluated was assessed using Doxorubicin as a reference compound. In general, quinoline-based thiosemicarbazones 4 seem to have a much better anticancer activity than halogenophenyl compounds 3. Thus, the quinoline nucleus can be defined as being crucial for antiproliferative activity. A more detailed analysis of the anticancer activity of quinoline-based thiosemicarbazone is available. […] Nevertheless, some more general conclusions can be drawn from the gathered data. […] The free amino group or substitution pattern with small substituents such as methyl or ethyl are favorable for activity. According to our former results the chelating ability of the compounds may be one of the prerequisites of the antiproliferative activity. In this study we have measured the UV-VIS spectra of the compounds in presence of various concentration of Fe^3+ cations to observe its chelating potency (supplementary material). […] However as 4j give also two points at 330 and 385 nm, iron chelating ability should be regarded only as one of the factor influencing the biological activity.
The human colon cancer cell line HCT116 with the wild type p53 gene (p53^+/+) were obtained from Maria Sklodowska-Curie Memorial Cancer Center in Gliwice, Poland. Briefly, the cells were seeded in 96-well plates (3 × 10^3 cells/well) in cellular proliferation assays 24 h before the addition of the chelators. The assay was performed following a 72 h incubation with varying concentrations of the agents. Each compound was tested in triplicate in a single experiment with each experiment being repeated 3 times. After 72 h incubation with the compounds being investigated, 20 µL of MTS solution was added to each well (100 µL) and incubated for 1 h at 37 °C. The optical densities of the samples were analyzed at 490 nm. Results were expressed as a percentage of the control. The inhibitory concentration (IC50) was defined as the compound concentration necessary to reduce the absorbance to 50% of the untreated control.
For orientation: Formazan colour is commonly taken as a measure of viable cells.

Data set [7] concerns photosynthetic electron transport (PET) in spinach chloroplasts. The data set is described as follows: Inhibition of photosynthetic electron transport (PET) in spinach chloroplasts. In kind it is biochemical, Spinacia oleracea L. The conditions noted are these: DCPIP photoreduction. On the procedure: Chloroplasts were prepared from spinach (Spinacia oleracea L.) according to Masarovicova and Kralova. The inhibition of the photosynthetic electron transport (PET) in spinach chloroplasts was determined spectrophotometrically (Genesys 6, Thermo Fisher Scientific, Waltham, MA, USA) using an artificial electron acceptor 2,6-dichlorophenol-indophenol (DCIPP) according to Kralova et al. and the rate of photosynthetic electron transport was monitored as a photoreduction of DCPIP. The measurements were carried out in a phosphate buffer (0.02 mol/L, pH 7.2) containing sucrose (0.4 mol/L), MgCl2 (0.005 mol/L) and NaCl (0.015 mol/L). The chlorophyll content was 30 mg/L in these experiments and the samples were irradiated (~100 W/m^2 with 10 cm distance) with a halogen lamp (250 W) using a 4 cm water filter to prevent warming of the samples (suspension temperature 22 °C). The compounds studied were dissolved in DMSO due to their limited water solubility. […] The inhibitory efficiency of the compounds studied was expressed by IC50 values, i.e., by the molar concentration of the compounds that caused a 50% decrease in the oxygen evolution rate relative to the untreated control.

Where [8] appears, read: ATCC44859, 24 h and 48 h, only one value presented (inactive).
[9] abbreviates: Candida tropicalis, 156, 24 h and 48 h, only one value presented (inactive).
The mark [10] stands for this setting: ATCC6258, 24 h and 48 h, only one value presented (inactive).
The mark [11] stands for this setting: 24 h and 48 h, only one value presented (inactive).
Setting [12] is: Aspergillus fumigatus, 231, 24 h and 48 h, only one value presented (inactive).
[13] abbreviates: Lichtheimia corymbifera, 272, 24 h and 48 h, only one value presented (inactive).
Where [14] appears, read: Trichophyton mentagrophytes, 445, 72 h and 120 h, only one value presented (inactive).
Where [15] appears, read: Trichosporon beigelii, 1188, 24 h and 48 h, only one value presented (inactive), read-out: MIC (IC80) TB.

Regarding `CNC(=S)NN=Cc1ccc2ccccc2n1` [Compound 4a], in [1], the log k turned out to be 0.6329. Moreover, the MIC was above 500 µM in data set [2] (setting [8]); above 500 µM in the data set with Candida tropicalis 156 (setting [9]); above 500 µM with Candida krusei ATCC 6258 (setting [10]); above 500 µM in the data set on Candida glabrata 20/I (setting [11]); above 500 µM in data set [3] (Trichosporon beigelii, 1188, read-out: MIC (IC80) TB). Moreover, the IC50 in data set [4] (setting [12]) is above 500 µM; in the data set on Absidia corymbifera 272 (setting [13]), above 500 µM; in data set [5] (setting [14]) it was above 500 µM; in data set [6] (HCT-116, 72 h incubation, MTS), above 25 µM.

In data set [1], `S=C(N/N=C/c1ccc(Br)cc1)Nc1ccccc1` [Compound 3o, (E)-2-(4-bromobenzylidene)-N-phenylhydrazinecarbothioamide] returned a log k of 0.8772. The MIC (in data set [2] (setting [8]); with Candida tropicalis 156 (setting [9]); in the data set with Candida krusei ATCC 6258 (setting [10]); in the data set on Candida glabrata 20/I (setting [11]); in data set [3] (setting [15])) was above 500 µM each time. Also, the IC50 in data set [4] (setting [12]) was above 500 µM; in the data set on Absidia corymbifera 272 (setting [13]), above 500 µM; in [5] (setting [14]) it was above 500 µM; in [6] (HCT-116, 72 h incubation, MTS), above 60 µM.

Compound `CCNC(=S)NN=Cc1ccc2ccccc2n1` [Compound 4c] yielded a log k in [1] of 0.6892.

As for `OC(Cn1cncn1)(Cn1cncn1)c1ccc(F)cc1F` [FLU, Fluconazole, reference compound], the MIC in data set [2] (ATCC44859, 24 h) is 0.06 µM (≈ 0.0184 µg/mL); in data set [2] (ATCC44859, 48 h), 0.12 µM (≈ 0.0368 µg/mL); in the data set with Candida tropicalis 156 (Candida tropicalis, 156, 24 h), 0.12 µM (≈ 0.0368 µg/mL); in the data set with Candida tropicalis 156 (Candida tropicalis, 156, 48 h) it was above 125 µM; with Candida krusei ATCC 6258 (ATCC6258, 24 h), 3.91 µM (≈ 1.2 µg/mL); with Candida krusei ATCC 6258 (ATCC6258, 48 h) it was 15.6 µM (≈ 4.78 µg/mL). For the same compound, the MIC in the data set on Candida glabrata 20/I (24 h) was determined as 0.98 µM (≈ 0.3 µg/mL); with Candida glabrata 20/I (48 h), 3.91 µM (≈ 1.2 µg/mL); in data set [3] (Trichosporon beigelii, 1188, 24 h, read-out: MIC (IC80) TB), 0.24 µM (≈ 0.0735 µg/mL); in data set [3] (Trichosporon beigelii, 1188, 48 h, read-out: MIC (IC80) TB) it was 0.48 µM (≈ 0.147 µg/mL). In addition, the IC50 is above 125 µM in data set [4] (Aspergillus fumigatus, 231, 24 h); above 125 µM in data set [4] (Aspergillus fumigatus, 231, 48 h); above 125 µM with Absidia corymbifera 272 (Lichtheimia corymbifera, 272, 24 h); above 125 µM in the data set on Absidia corymbifera 272 (Lichtheimia corymbifera, 272, 48 h); 1.95 µM in [5] (Trichophyton mentagrophytes, 445, 72 h); 3.91 µM in [5] (Trichophyton mentagrophytes, 445, 120 h).

In the case of `COc1cccc2c1C(=O)c1c(O)c3c(c(O)c1C2=O)C[C@@](O)(C(=O)CO)C[C@@H]3O[C@H]1C[C@H](N)[C@H](O)[C@H](C)O1` [DXR, doxorubicin, reference compound], the IC50 in [6] (HCT-116, 72 h) is 10 ± 1.1 µM.

In data set [1], `CN(C)C(=S)N/N=C/c1cccc(Cl)c1Cl` [Compound 3c, (E)-2-(2,3-Dichlorobenzylidene)-N,N-dimethylhydrazinecarbothioamide] displayed a log k of 0.7214. The MIC (in data set [2] (setting [8]); in the data set on Candida tropicalis 156 (setting [9]); with Candida krusei ATCC 6258 (setting [10]); with Candida glabrata 20/I (setting [11]); in data set [3] (setting [15])) was above 125 µM throughout. Besides, the IC50 (in data set [4] (setting [12]); in the data set with Absidia corymbifera 272 (setting [13]); in data set [5] (setting [14])) was above 125 µM each time.

`CCNC(=S)NN=Cc1ccc2cccc(O)c2n1` [Compound 4g] displayed a log k in data set [1] of 0.6810.

Regarding `CNC(=S)N/N=C/c1ccc(Br)cc1` [Compound 3l, (E)-2-(4-bromobenzylidene)-N-methylhydrazinecarbothioamide], the log k in data set [1] is given as 0.6993. The minimal inhibitory concentration (MIC) (in [2] (setting [8]); in the data set on Candida tropicalis 156 (setting [9]); in the data set on Candida krusei ATCC 6258 (setting [10]); in the data set on Candida glabrata 20/I (setting [11]); in data set [3] (setting [15])) was above 500 µM throughout. Besides, the IC50 in data set [4] (setting [12]) was above 500 µM; in the data set with Absidia corymbifera 272 (setting [13]), above 500 µM; in data set [5] (setting [14]), above 500 µM; in data set [6] (HCT-116, 72 h incubation, MTS), above 60 µM.

As to `S=C(NN=Cc1ccc2ccccc2n1)Nc1ccccc1` [Compound 4d], the log k in data set [1] is reported as 0.7553.

For the compound `CN(C)C(=O)Nc1ccc(Cl)c(Cl)c1` [DCMU, 3-(3,4-dichlorophenyl)-1,1-dimethylurea, reference compound], the IC50 in [7] is ~1.9 µM and 1.9 µM.

By MIC is commonly meant the lowest concentration found to suppress growth. What is called IC50 is the concentration needed to halve the response being measured.
